Common to all, as to assay type: cell-based, human
Experiment [1] deals with cornuline (CRNN) gene. Description: Real-time PCR gene expression in three-dimension culture of keratinocytes (3D skin model), cornuline. The conditions noted are these: D-Ser 100 μM, 7 days, corrected by MRPL19, FIG. 6. As to the method:
(§1) Human normal keratinocytes were seeded on polycarbonate insert (Millipore) having 12 mm of diameter and 0.4 μm of bore diameter. Then, Human normal keratinocytes were cultured for three days under 5% CO2 atmosphere at 37° C. by adding Cnt-Prime, Epithelial Culture Medium (CELLnTEC Advanced Cell Systems AG) inside and outside of the insert, followed by being cultured for 24 hours by substituting with Cnt-prime 3D Barrier medium (CELLnTEC Advanced Cell Systems AG). […]
(§2) Total RNA extracted by means of Trizol reagent (Invitrogen) was subjected to NanoDrop 1000 Spectrophotometer (Thermo Fisher Scientific) to determine RNA concentration, and then was converted to cDNA by using SuperScriptVIL0 (Invitrogen). Relative expression amount of genes of fillagrin (FLG), cornuline (CRNN) and repetin (RPTN), and mitochondrial ribosome protein L19 (MRPL19) which was used as an internal control gene was determined. […]
(§3) Relative expression amount of the target gene of each group was determined by means of correction using the expression amount of mitochondrial ribosome protein L19 gene (MRPL19) as an internal control (FIGS. 5-7). […]
Background: Quantitative PCR measures a nucleic acid by following its amplification.

The subject of experiment [2] is repetin (RPTN) gene. Description: Real-time PCR gene expression in three-dimension culture of keratinocytes (3D skin model), repetin. The conditions noted are these: D-Ser 100 μM, 7 days, corrected by MRPL19, FIG. 7. As to the method:
as §1, §2, §3

Experiment [3] relates to fillagrin (FLG) gene. Description: Real-time PCR gene expression in three-dimension culture of keratinocytes (3D skin model), fillagrin. Particulars: D-Ser 100 μM, 7 days, corrected by MRPL19, FIG. 5. Here is the method: as §1, §2, §3

With `N[C@H](CO)C(=O)O` [D-serine], the results for the “expression level of cornuline gene” value in experiment [1] and in experiment [1] (listed as D-Ser) were “increases” and “increased”, respectively. Besides, the “expression level of repetin gene” value in experiment [2] is reported as “increases”; in experiment [2] (listed as D-Ser) it was “increased”. Moreover, the “expression level of fillagrin gene” value is given as “increases” in experiment [3] and “increased” in experiment [3] (listed as D-Ser).
